This is an account of results in ChEMBL document CHEMBL4000156 (Eur J Med Chem, 2016).

Some results are limits rather than exact numbers.

The test system of one assay is RAW264.7. In words: Antioxidant activity in LPS induced mouse RAW264.7 cells assessed as superoxide anion scavenging activity at 10 uM after 24 hrs by HE probe based HPLC-MS analysis relative to control. The assay is classed as functional.
The nature of assay [1]: Antioxidant activity assessed as DPPH radical scavenging activity incubated for 30 mins under dark conditions by spectrophotometry. The assay is classed as functional. For orientation: DPPH is a stable violet radical that fades when it is reduced.
Assay [2] addresses Xanthine dehydrogenase/oxidase (Homo sapiens, UniProt P47989). In words: Inhibition of Xanthine oxidase (unknown origin) using xanthine as substrate preincubated for 3 mins followed by substrate addition measured every 15 secs for 7 mins by spectrophotometry.

Xanthine dehydrogenase/oxidase, sequence (P47989 whole entry): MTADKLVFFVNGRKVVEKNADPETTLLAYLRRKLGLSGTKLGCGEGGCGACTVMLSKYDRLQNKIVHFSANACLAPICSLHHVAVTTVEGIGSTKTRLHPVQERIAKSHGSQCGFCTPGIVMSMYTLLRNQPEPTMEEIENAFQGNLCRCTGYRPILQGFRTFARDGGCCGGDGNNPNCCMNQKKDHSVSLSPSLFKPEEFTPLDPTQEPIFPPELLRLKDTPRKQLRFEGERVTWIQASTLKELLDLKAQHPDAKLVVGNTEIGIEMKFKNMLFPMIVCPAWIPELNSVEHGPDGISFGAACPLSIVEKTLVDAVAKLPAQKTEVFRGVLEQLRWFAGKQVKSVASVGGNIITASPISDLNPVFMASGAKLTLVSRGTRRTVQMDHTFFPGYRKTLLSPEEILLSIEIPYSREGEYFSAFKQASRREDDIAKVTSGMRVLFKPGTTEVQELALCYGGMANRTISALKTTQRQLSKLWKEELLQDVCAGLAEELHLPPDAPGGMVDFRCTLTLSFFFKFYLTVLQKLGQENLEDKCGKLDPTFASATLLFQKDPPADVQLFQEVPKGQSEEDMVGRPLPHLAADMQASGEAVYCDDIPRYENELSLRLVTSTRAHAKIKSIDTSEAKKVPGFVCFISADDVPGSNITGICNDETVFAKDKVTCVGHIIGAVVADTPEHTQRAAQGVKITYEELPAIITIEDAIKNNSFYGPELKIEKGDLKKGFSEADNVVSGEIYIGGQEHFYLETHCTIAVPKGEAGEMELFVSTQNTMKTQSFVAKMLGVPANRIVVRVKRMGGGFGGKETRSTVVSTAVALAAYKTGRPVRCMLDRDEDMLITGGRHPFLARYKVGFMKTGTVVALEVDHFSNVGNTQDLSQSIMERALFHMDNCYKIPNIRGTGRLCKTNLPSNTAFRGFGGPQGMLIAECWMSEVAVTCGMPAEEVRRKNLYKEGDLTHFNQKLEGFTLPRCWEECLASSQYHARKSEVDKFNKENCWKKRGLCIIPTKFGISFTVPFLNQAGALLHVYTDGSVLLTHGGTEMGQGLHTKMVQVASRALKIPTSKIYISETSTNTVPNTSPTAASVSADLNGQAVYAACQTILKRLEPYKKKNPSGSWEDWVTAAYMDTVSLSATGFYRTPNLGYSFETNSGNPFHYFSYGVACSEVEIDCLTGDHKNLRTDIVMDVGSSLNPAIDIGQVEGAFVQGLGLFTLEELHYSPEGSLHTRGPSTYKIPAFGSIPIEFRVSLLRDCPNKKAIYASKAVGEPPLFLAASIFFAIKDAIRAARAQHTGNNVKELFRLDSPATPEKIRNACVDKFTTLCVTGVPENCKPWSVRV

`COC(=O)[C@H](C)NC(=O)/C=C/c1ccc(O)c2oc(-c3ccc(O)c(O)c3)cc12`: the Activity in the assay on RAW264.7 was determined as 60.54%. Consider `C[C@H](NC(=O)/C=C/c1ccc(O)c2oc(-c3ccc(O)c(O)c3)cc12)C(=O)O`, for which, in the assay with RAW264.7, the Activity came out at 41.65%.

In the case of VITAMIN E, the Activity with RAW264.7 was determined as 53.2%. Take `O=C(/C=C/c1ccc(O)c2oc(-c3ccc(O)c(O)c3)cc12)N[C@@H](Cc1ccc(O)cc1)C(=O)O`: the Activity in the assay on RAW264.7 is recorded as 83.41%. With `COC(=O)[C@@H](Cc1c[nH]c2ccccc12)NC(=O)/C=C/c1ccc(OC)c2oc(-c3ccc(OC)c(OC)c3)cc12`, the half-inhibitory concentration (IC50) was above 100 µM in assay [1] and above 60 µM in assay [2].

With `COC(=O)[C@H](Cc1ccc(O)c(O)c1)NC(=O)/C=C/c1ccc(O)c2oc(-c3ccc(O)c(O)c3)cc12`, the Activity in the assay with RAW264.7 is reported as 78.59%. On to `COC(=O)[C@H](Cc1ccccc1)NC(=O)/C=C/c1ccc(OC)c2oc(-c3ccc(OC)c(OC)c3)cc12`, for which the IC50 in assay [1] is above 100 µM; in assay [2], above 60 µM. Turning to `O=C(/C=C/c1ccc(O)c2oc(-c3ccc(O)c(O)c3)cc12)N[C@@H](Cc1ccccc1)C(=O)O`, in the assay with RAW264.7, the Activity came to 81.27%. On to `COC(=O)[C@H](C)NC(=O)/C=C/c1ccc(OC)c2oc(-c3ccc(OC)c(OC)c3)cc12`, for which the IC50 was above 100 µM in assay [1] and above 60 µM in assay [2]. For `COC(=O)[C@@H](Cc1ccc(O)c(O)c1)NC(=O)/C=C/c1ccc(O)c2oc(-c3ccc(O)c(O)c3)cc12`, the Activity in the assay with RAW264.7 worked out at 74.16%.

With `O=C(/C=C/c1ccc(O)c2oc(-c3ccc(O)c(O)c3)cc12)N[C@H](Cc1ccc(O)c(O)c1)C(=O)O`, the Activity in the assay with RAW264.7 worked out at 80.81%. As to `O=C(/C=C/c1ccc(O)c2oc(-c3ccc(O)c(O)c3)cc12)O[C@H](Cc1ccc(O)c(O)c1)C(=O)O`, the figures for the half-maximal inhibitory concentration (IC50) in assay [1] and in assay [2] were 6.87 µM and 8.26 µM, respectively. In the assay on RAW264.7, the Activity came out at 37.82%.

For orientation: IC50 means the concentration that inhibits the measured activity by half.
